Results on 6 compounds are retold here after ChEMBL document CHEMBL5346893, “1,2,4-Amino-triazine derivatives as pyruvate dehydrogenase kinase inhibitors: Synthesis and pharmacological evaluation” (Eur J Med Chem, 2023).

In series [1] the test system is PSN1. Kind of series: Induction of mitochondrial damage in human PSN1 cells assessed as decrease in mitochondria inner membrane electron density at IC50 incubated for 24 hrs by staining based TEM analysis. The class given is functional, cell-based.
Series [2] concerns PSN1. Briefly: Inhibition of PDK in human PSN1 cells expressing KRAS mutant assessed as decrease in lactate production levels at IC50 incubated for 60 mins by colorimetric analysis. The class given is cell-based.
Series [3] relates to BXPC-3. Briefly: Antiproliferative activity against human BXPC-3 cells expressing wild type KRAS cultured as 3D spheroids assessed as inhibition of cell growth measured after 72 hrs by MTT assay. The class given is functional, cell-based. The conditions noted are these: BXPC-3, 72 h. Background: Tetrazolium dyes change colour on reduction, which living cells bring about.
The subject of series [4] is PSN1. Briefly: Induction of mitochondrial damage in human PSN1 cells assessed as increase in disruption of cristae at IC50 incubated for 24 hrs by staining based TEM analysis. The class given is functional, cell-based.
Series [5] has as its system PSN1. Kind of series: Induction of reactive oxygen species production in human PSN1 cells assessed as increase in cellular hydrogen peroxide formation at 5 uM by CM-H2DCFDA staining based analysis. It is filed as functional, cell-based.
Series [6] concerns PSN1. Briefly: Induction of apoptosis in human PSN1 cells assessed as brightly stained nuclei at IC50 incubated for 48 hrs by Hoechst 33258 staining based confocal microscopic analysis. The class given is functional, cell-based.
Series [7] relates to PSN1. Kind of series: Downregulation of PDHA1 phosphorylation in human PSN1 cells at IC50 incubated for 24 hrs by ELISA assay. It is filed as functional, cell-based. On the technique in general: An ELISA detects its analyte on a solid surface through an enzyme-linked reagent.
Series [8] concerns the target T1, Heat shock protein HSP90 (Homo sapiens, UniProt P07900+P08238). Briefly: Inhibition of human recombinant HSP90 at 1.5 uM incubated for 30 mins by fluorescence polarization based analysis relative to control. The class given is protein assay. A general note: In fluorescence polarisation assays a small probe gives low polarisation when free and higher when bound to something large.

Series [9] relates to PSN1. Kind of series: Antiproliferative activity against human PSN1 cells expressing KRAS mutant cultured as 2D spheroids assessed as inhibition of cell growth measured after 72 hrs by MTT assay. It is filed as functional, cell-based. The conditions noted are these: PSN1, 72 h.
Series [10] relates to PSN1. Briefly: Induction of mitochondrial damage in human PSN1 cells assessed as decrease in mitochondria matrix region electron density at IC50 incubated for 24 hrs by staining based TEM analysis. The class given is functional, cell-based.
Series [11] relates to PSN1. Kind of series: Induction of apoptosis in human PSN1 cells assessed as chromatin condensation at IC50 incubated for 48 hrs by Hoechst 33258 staining based confocal microscopic analysis. The class given is functional, cell-based.
Series [12] concerns the target [Pyruvate dehydrogenase (acetyl-transferring)] kinase isozyme 4, mitochondrial (Homo sapiens) (UniProt Q16654). Briefly: Inhibition of PDK4 (unknown origin) at 1.5 uM incubated for 30 mins followed by substrate addition measured after 60 mins in presence of ATP by ADP-Glo luminescent assay relative to control. The conditions noted are these: time 90.0 min.
For series [13], the system named is PSN1. Kind of series: Induction of mitochondrial damage in human PSN1 cells assessed as increase in mitochondria substantial swelling at IC50 incubated for 24 hrs by staining based TEM analysis. The class given is functional, cell-based.
The subject of series [14] is PSN1. Briefly: Induction of mitochondrial membrane potential loss in human PSN1 cells at IC50 incubated for 60 mins by fluorescence based analysis. It is filed as functional.
The test system of series [15] is PSN1. Briefly: Antiproliferative activity against human PSN1 cells expressing KRAS mutant cultured as 3D spheroids assessed as inhibition of cell growth measured after 72 hrs by MTT assay. The conditions noted are these: PSN1, 72 h. It is filed as functional, cell-based.
Series [16] concerns the target T2, [Pyruvate dehydrogenase (acetyl-transferring)] kinase isozyme 1, mitochondrial (Homo sapiens, UniProt Q15118). Kind of series: Inhibition of PDK1 (unknown origin) at 1.5 uM incubated for 30 mins followed by substrate addition measured after 60 mins in presence of ATP by ADP-Glo luminescent assay relative to control. The conditions noted are these: time 90.0 min, values are per cent of control.

Series [17] deals with [Pyruvate dehydrogenase (acetyl-transferring)] kinase isozyme 2, mitochondrial (Homo sapiens) (UniProt Q15119). Briefly: Inhibition of PDK2 (unknown origin) at 1.5 uM incubated for 30 mins followed by substrate addition measured after 60 mins in presence of ATP by ADP-Glo luminescent assay relative to control. The conditions noted are these: time 90.0 min.
Series [18] addresses T2, [Pyruvate dehydrogenase (acetyl-transferring)] kinase isozyme 1, mitochondrial. Kind of series: Inhibition of PDK1 (unknown origin) incubated for 30 mins followed by substrate addition measured after 60 mins in presence of ATP by ADP-Glo luminescent assay.
For series [19], the system named is PSN1. Briefly: Inhibition of PDK in human PSN1 cells expressing KRAS mutant assessed as increase in cellular oxygen consumption at IC50 incubated for 60 mins by fluorescence based analysis. The class given is cell-based.
Series [20] has as its system PSN1. Briefly: Induction of reactive oxygen species production in human PSN1 cells assessed as decrease in total cellular sulfhydryls level at IC50 incubated for 24 hrs by DTNB reagent based spectrophotometric analysis. The class given is functional, cell-based.
The subject of series [21] is BXPC-3. Kind of series: Antiproliferative activity against human BXPC-3 cells expressing wild type KRAS cultured as 2D spheroids assessed as inhibition of cell growth measured after 72 hrs by MTT assay. The conditions noted are these: BXPC-3, 72 h. The class given is functional, cell-based.
Series [22] in a line: In vivo antitumor activity against mouse Lewis lung carcinoma cell line implanted in C57BL mouse assessed as tumor growth inhibition at 60 mg/kg, ip administered daily on day 7 to 14 measured after 15 days. The class given is functional. The conditions noted are these: 360 h, time 15 day, read-out: TGI.
Series [23] concerns the target T1, Heat shock protein HSP90. Briefly: Inhibition of human recombinant HSP90 incubated for 30 mins by fluorescence polarization based analysis. It is filed as protein assay.
In series [24] the target is [Pyruvate dehydrogenase (acetyl-transferring)] kinase isozyme 3, mitochondrial (Homo sapiens) (UniProt Q15120). Briefly: Inhibition of PDK3 (unknown origin) at 1.5 uM incubated for 30 mins followed by substrate addition measured after 60 mins in presence of ATP by ADP-Glo luminescent assay relative to control. The conditions noted are these: time 90.0 min.
Series [25] is described as follows: Toxicity in C57BL mouse implanted with mouse Lewis lung carcinoma cell line assessed as reduction in body weight loss at 20 mg/kg, ip administered daily on day 7 to 14 measured after 15 days. The class given is organism-based. The conditions noted are these: in vivo, 360 h, time 15 day.
A short description of series [26]: Toxicity in C57BL mouse implanted with mouse Lewis lung carcinoma cell line assessed as anorexia at 20 mg/kg, ip administered daily on day 7 to 14 measured after 15 days. It is filed as organism-based. The conditions noted are these: in vivo, 360 h, time 15 day.
The subject of the next series is Lewis lung carcinoma. Kind of series: In vivo antitumor activity against mouse Lewis lung carcinoma cell line implanted in C57BL mouse assessed as reduction in PDHA1 phosphorylation at 20 mg/kg, ip administered daily on day 7 to 14 measured after 15 days by ELISA assay. The conditions noted are these: time 15.0 day. It is filed as functional, organism-based.
Series [27] can be described thus: In vivo antitumor activity against mouse Lewis lung carcinoma cell line implanted in C57BL mouse assessed as tumor growth inhibition at 20 mg/kg, ip administered daily on day 7 to 14 measured after 15 days. The class given is functional. The conditions noted are these: 360 h, time 15 day, read-out: TGI.

The source made the active and inactive calls. The rule behind the calls is not given here.

As a reminder, the inhibition is the relative decrease from the control value, in per cent. In general, IC50 refers to the concentration that gives 50% inhibition. Usually residual activity stands for the share of the control activity or signal that is left under treatment.

Sequence of [Pyruvate dehydrogenase (acetyl-transferring)] kinase isozyme 4, mitochondrial (Homo sapiens) (Q16654 whole entry, looked up): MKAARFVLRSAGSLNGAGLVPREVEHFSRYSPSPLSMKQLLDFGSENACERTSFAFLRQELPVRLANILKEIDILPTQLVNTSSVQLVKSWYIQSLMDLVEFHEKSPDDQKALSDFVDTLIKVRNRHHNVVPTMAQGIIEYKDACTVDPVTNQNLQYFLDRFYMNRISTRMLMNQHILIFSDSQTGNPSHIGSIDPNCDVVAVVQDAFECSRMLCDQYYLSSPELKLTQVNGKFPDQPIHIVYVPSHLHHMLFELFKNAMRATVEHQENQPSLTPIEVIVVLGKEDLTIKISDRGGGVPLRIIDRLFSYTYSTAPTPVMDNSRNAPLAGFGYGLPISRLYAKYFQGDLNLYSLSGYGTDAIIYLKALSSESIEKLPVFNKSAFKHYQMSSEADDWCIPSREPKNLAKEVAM
T2 sequence (Q15118 whole entry): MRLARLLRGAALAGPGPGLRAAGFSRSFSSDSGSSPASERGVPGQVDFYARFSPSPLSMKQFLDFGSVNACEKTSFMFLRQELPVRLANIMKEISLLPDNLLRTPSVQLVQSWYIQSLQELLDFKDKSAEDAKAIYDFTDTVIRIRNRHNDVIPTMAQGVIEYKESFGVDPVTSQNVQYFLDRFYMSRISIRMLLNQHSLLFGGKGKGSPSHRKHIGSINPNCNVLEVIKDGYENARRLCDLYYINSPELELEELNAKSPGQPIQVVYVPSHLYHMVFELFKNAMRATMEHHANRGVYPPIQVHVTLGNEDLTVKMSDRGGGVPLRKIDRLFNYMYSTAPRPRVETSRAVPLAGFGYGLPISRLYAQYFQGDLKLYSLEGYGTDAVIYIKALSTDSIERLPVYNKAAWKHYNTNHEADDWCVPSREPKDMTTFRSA
Sequence of [Pyruvate dehydrogenase (acetyl-transferring)] kinase isozyme 3, mitochondrial (Homo sapiens) (Q15120 whole entry, looked up): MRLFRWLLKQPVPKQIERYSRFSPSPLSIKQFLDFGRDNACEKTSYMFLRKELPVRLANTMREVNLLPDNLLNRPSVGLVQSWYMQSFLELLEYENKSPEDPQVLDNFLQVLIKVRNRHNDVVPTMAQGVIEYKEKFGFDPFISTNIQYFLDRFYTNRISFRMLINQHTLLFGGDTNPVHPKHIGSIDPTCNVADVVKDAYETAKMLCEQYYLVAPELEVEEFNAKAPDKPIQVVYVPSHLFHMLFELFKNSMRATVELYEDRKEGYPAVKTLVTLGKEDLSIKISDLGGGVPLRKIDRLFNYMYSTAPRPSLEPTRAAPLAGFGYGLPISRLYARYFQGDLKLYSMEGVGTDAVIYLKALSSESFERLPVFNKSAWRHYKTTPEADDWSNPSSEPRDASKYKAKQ

For the compound `Cn1cc(-c2nnc(N)nc2-c2c[nH]c3ccc(F)cc23)c2cc(Br)cnc21`, the result in the series on PSN1 [1], in the series with PSN1 [4], in the series on PSN1 [5], in the series on PSN1 [6], in the series with PSN1 [7] and in the series with PSN1 [10] was Active. The outcome in the series on PSN1 [11], in the series with PSN1 [13], with PSN1 [14] and in the series on PSN1 [20] was Active. Further, the inhibition entry in the series on PSN1 [2] and in the series on PSN1 [19] was “Active” throughout. In addition, the IC50 in the series on BXPC-3 [3] turned out to be 6900 nM; with PSN1 [9], 600 nM; with PSN1 [15], 11200 nM; in [18] it was 60 nM; in the series with BXPC-3 [21], 200 nM. Also, the inhibition at Heat shock protein HSP90 [8] is 60%; in series [12], 0%; in series [17], 100%. Further, in series [16], the residual activity turned out to be 0%.
With `Nc1ccn([C@@H]2O[C@H](CO)[C@@H](O)C2(F)F)c(=O)n1` [GEMCITABINE], the inhibition in vivo at 60 mg/kg in series [22] came out at 80%. In addition, the IC50 in the series on PSN1 [9] came out at 20 nM; with BXPC-3 [21] it was 100 nM.
With `Cn1cc(-c2nnc(N)nc2-c2c[nH]c3ccc(Br)cc23)c2cc(Br)cnc21`, the IC50 came out at 1400 nM at Heat shock protein HSP90 [23]; 24800 nM with BXPC-3 [3]; 1300 nM in the series on PSN1 [9]; 39100 nM in the series on PSN1 [15]; 210 nM in [18]; 100 nM in the series with BXPC-3 [21]. Moreover, the inhibition entry in the series with PSN1 [2] and in the series with PSN1 [19] was “Active” in each case. The outcome with PSN1 [5], in the series on PSN1 [7], in the series on PSN1 [14] and with PSN1 [20] was Active. Besides, the figures for the inhibition (at Heat shock protein HSP90 [8]; in series [12]; in [17]) were 40%, 60% and 100%, respectively. In addition, the residual activity in series [16] was 60%.
As to `Cn1cc(-c2nc(N)nnc2-c2c[nH]c3ccc(Br)cc23)c2cc(Br)cnc21`, the inhibition result with PSN1 [2] and in the series with PSN1 [19] was “Active” throughout. The half-inhibitory concentration (IC50) with BXPC-3 [3] was 6000 nM; in the series on PSN1 [9] it was 1100 nM; with PSN1 [15], 24200 nM; in [18], 60 nM; in the series on BXPC-3 [21], 700 nM. In addition, the outcome in the series on PSN1 [5], with PSN1 [7], with PSN1 [14] and in the series with PSN1 [20] was Active. The results for the inhibition (at Heat shock protein HSP90 [8]; in [12]; in [17]) were 40%, 0% and 100%, respectively. Also, the residual activity in [16] was found to be 0%.
For the compound `Cn1cc(-c2nc(N)nnc2-c2c[nH]c3ccc(F)cc23)c2cc(Br)cnc21`, the inhibition result with PSN1 [2] and with PSN1 [19] was “Active” each time. Besides, the IC50 came out at 5000 nM with BXPC-3 [3]; 2300 nM with PSN1 [9]; 8300 nM with PSN1 [15]; 150 nM in series [18]; 200 nM in the series with BXPC-3 [21]. Also, the result with PSN1 [5], in the series on PSN1 [7], in the series on PSN1 [14] and in the series on PSN1 [20] was Active. For the same compound, the inhibition (on Heat shock protein HSP90 [8]; in series [12]) was 60% throughout. For the same compound, the residual activity in [16] was found to be 60%.
On to `COc1ccc2[nH]cc(-c3nnc(N)nc3-c3cn(C)c4ncc(Br)cc34)c2c1`, for which the result with PSN1 [1], with PSN1 [4], in the series with PSN1 [5], in the series on PSN1 [6], in the series on PSN1 [7] and with PSN1 [10] was Active. In addition, the outcome with PSN1 [11], in the series with PSN1 [13], in the series with Lewis lung carcinoma and with PSN1 [20] was Active. The IC50 on Heat shock protein HSP90 [23] was determined as 100 nM; in the series on BXPC-3 [3], 3300 nM; in the series with PSN1 [9], 1000 nM; in the series with PSN1 [15], 11900 nM; in series [18], 30 nM; in the series with BXPC-3 [21] it was 100 nM. The inhibition entry in the series on PSN1 [2] and with PSN1 [19] was “Active” in each case. Besides, the inhibition is 100% in [24], 0% on Heat shock protein HSP90 [8], 0% in series [12] and 100% in [17]. Moreover, the Activity entry in [25] was “Non-Toxic”; in [26], ~ 20%; with PSN1 [14] (1 h), 45%. The residual activity in series [16] was determined as 0%. For the same compound, the inhibition in vivo at 20 mg/kg in [27] came to 86%.
